The source of these data is publication PMC9081605, “A High-Throughput Toxicity Screen of 42 Per- and Polyfluoroalkyl Substances (PFAS) and Functional Assessment of Migration and Gene Expression in Human Placental Trophoblast Cells” (Frontiers in Toxicology, 2022).

Common to all, as to type: cell-based, human
The subject of assay [1] is JEG-3 cells. The assay is described as follows: CellTiter-Glo luminescent cell viability assay (HTTS). The settings on record: for Viability ↑, lowest concentration at which the mean response value exceeded the mean control value ± 2*SD (rough binning): 24 h, increase; for cell viability relative to vehicle control (rough binning): after 24 h, in at least one concentration. The text has this:
(§1) JEG-3 human choriocarcinoma trophoblastic cells (American Type Culture Collection, VA, United States) were maintained in sterile-filtered Minimum Essential Media (MEM) supplemented with L-glutamine and phenol red (Thermo Fisher Scientific, MA, United States), 10% (v/v) heat-inactivated BenchMark Fetal Bovine Serum (Gemini Bio, CA, United States), 1% (v/v) sodium pyruvate (Thermo Fisher Scientific, MA, United States), and 1% (v/v) penicillin streptomycin (Sigma Aldrich, MO, United States). Cells were maintained in an incubator at 37°C with 5% CO2. JEG-3 cells were cultured in 10 cm tissue culture plates and cell passage numbers were recorded.
(§2) A total of 42 perfluoroalkyl substances (PFAS) were evaluated (Supplementary Table S1 contains source and purity). PFAS stock solutions were maintained in 100% methanol as previous work has shown certain PFAS degrade when stored in dimethyl sulfoxide (DMSO; [Gaballah et al., 2020]). […] The vehicle control group consisted of 97.5% media + 2.5% methanol to match the concentration of methanol in the media at the highest PFAS concentration tested (500 µM). Menadione (50–500 µM) was used as a positive control for cytotoxicity assessment. PFAS were de-identified and assigned random numbers to eliminate bias. Chemical exposure plate maps were designed so that all experimental conditions were tested in at least technical duplicates per plate. The outer edges of each plate received media alone and were excluded from all analyses to avoid edge effects. Each plate map included 14 technical replicates of the vehicle control group and 14 technical replicates of media only. Biological replicates were defined as separate 384 well plates tested on separate days using different cell passages. The experimental workflow is depicted in Supplementary Figure S1.
(§3) JEG-3 cells were counted using a Z2 Coulter Particle Counter (Beckman Coulter, CA, United States) and seeded at a density of 2,500 cells per well in black-walled, clear bottom 384 well plates (Corning, #3764) and allowed to adhere overnight. Approximately 24 h later, 384 well plates were imaged using an IncuCyte Zoom live cell imager (Essen BioScience Inc., MI, United States) to obtain baseline cellular confluence measurements prior to chemical dosing (0 h). Media was removed from wells and replaced with fresh media containing chemical treatments (exposure media) using a Viaflo liquid handling device (Integra Biosciences, NH, United States). Within 30 min of exposure media application, plates were again imaged for cellular confluence using the IncuCyte Zoom. Plates were incubated with exposure media for 24 h and then imaged again using the IncuCyte Zoom (24 h).
In the same plate evaluated for mitochondrial membrane potential, cell viability measures were duplexed using the CellTiter-Glo (CTG) Luminescent Cell Viability Assay (Promega, WI, United States). CTG reagent was added to each well at a volume of 20 µl. The plate was left at room temperature to incubate for 5 min and then 20 µl from each well was transferred to a low-volume, round-bottom, white 384 well plate (Corning, NY, United States). The CTG reagent lyses cellular and mitochondrial membranes and binds to adenosine triphosphate (ATP) released by cells, which produces a luminescence signal. The intensity of the luminescence was considered a proxy measure for the number of live cells in a well. The luminescence intensities were measured using the CLARIOstar plate reader.
HTTS data were analyzed using a custom data analysis script in R v 1.2.5019 ([R Core Team, 2019]). Briefly, raw data points corresponding to the confluence measurements at 0 and 24 h, the fluorescence intensities corresponding to MMP, and the relative luminescence units (RLU) corresponding to cell viability were imported directly from Microsoft Excel into the R programming environment, RStudio. Separate plates run on separate days using different JEG-3 passages were considered as biologic replicates. […]
On the technique in general: In ATP-based viability assays light output follows the ATP content of the culture.

Assay [2] concerns JEG-3 cells. The assay is described as follows: Mitochondrial membrane potential, JC-10 assay (HTTS).
Description: as §1, §2, §3
The JC-10 assay (Enzo Life Sciences, NY, United States) was used to evaluate mitochondrial membrane potential, the main bioenergetic parameter that regulates respiratory rate, ATP synthesis and reactive oxygen species generation. In cells with polarized mitochondrial membranes, the JC-10 dye localizes to the mitochondrial matrix and forms red fluorescent aggregates (540/590 nm). In cells with depolarized mitochondrial membranes, the JC-10 dye localizes in the cytoplasm and converts to a green fluorescent monomer (490/525 nm). Mitochondrial membrane potential was calculated as the ratio of the green and red fluorescence intensities within a well.
At the end of the 24 h exposure period, exposure media was removed from the plate. The plate wells were then washed with 1x phosphate buffered saline (1x PBS). After washing, the JC-10 reagent was suspended in fresh 1x PBS and 20 µl was added to each well at a final concentration of 20 μM (Enzo Life Sciences, NY, United States). The plate was incubated for 1 h at 37°C, and the fluorescence intensities at excitation/emission wavelengths of 490/525 nm and 540/590 nm were measured using a CLARIOstar (BMG Labtech, Offenburg, Germany) plate reader, respectively.
HTTS data were analyzed using a custom data analysis script in R v 1.2.5019 ([R Core Team, 2019]). […]

Assay [3] deals with JEG-3 cells. Put plainly: Proliferation, change in confluence 0-24 h (IncuCyte Zoom, HTTS). Particulars: for Prolif ↓, lowest concentration at which the mean response value exceeded the mean control value ± 2*SD (rough binning) / EC50 / Prolif ↑, lowest concentration at which the mean response value exceeded the mean control value ± 2*SD (rough binning): JEG-3 cells; for Prolif ↓, lowest concentration at which the mean response value exceeded the mean control value ± 2*SD (rough binning) / Prolif ↑, lowest concentration at which the mean response value exceeded the mean control value ± 2*SD (rough binning): 24 h; for Prolif ↓, lowest concentration at which the mean response value exceeded the mean control value ± 2*SD (rough binning): decrease; for EC50: 24 h exposure, four-parameter fit, estimates meeting inclusion criteria, read-out: Proliferation EC50 ± SD; for cellular proliferation relative to vehicle control (rough binning): after 24 h, in at least one concentration; for Prolif ↑, lowest concentration at which the mean response value exceeded the mean control value ± 2*SD (rough binning): increase.
Description: as §1, §2, §3
Plate well bottom images were evaluated using automated cell masking. The automated cell masking program was developed using IncuCyte Zoom base software. Cell masking parameters were defined using a training set of JEG-3 cell images obtained prior to conducting the experiments and following IncuCyte Zoom software recommendations. Briefly, the training images were obtained from cell culture plates with varying levels of JEG-3 cellular confluence (ranging from ∼15% confluent to ∼95% confluent). Parameters for the automated cell masking were first manually set by an experimenter for 3-6 images of low (∼15–30%), medium (∼30–70%), and high confluence (∼70% or greater). The training images were then evaluated by the automated masking program and manually checked to ensure the parameters were sufficiently strict to ignore background (e.g., blank space on the plate well bottom) but adequately sensitive to detect cell borders. The masking program was then implemented on the experimental plates to obtain a baseline cellular confluence measurement at 0 h and a second confluence measurement at 24 h. […]

Setting [4] is: JEG-3 cells, 24 h exposure, four-parameter fit, estimates meeting inclusion criteria, read-out: Viability EC50 ± SD.
[5] abbreviates: JEG-3 cells, 24 h exposure, four-parameter fit, estimates meeting inclusion criteria, read-out: MMP EC50 ± SD.

On to 6:2 Fluorotelomer alcohol, for which the EC50 was 415 ± 70.6 µM in assay [1] (setting [4]); 95.1 ± 15.3 µM in assay [2] (JEG-3 cells, 24 h, read-out: MMP EC50 ± SE); 332 ± 44.1 µM in assay [2] (setting [5]).
For the molecule `Cc1ccc(S(=O)(=O)OCC(F)(F)C(F)(F)C(F)(F)C(F)(F)F)cc1` [1H,1H-Nonafluoropentyl p-toluenesulfonate], the “Viability ↑, lowest concentration at which the mean response value exceeded the mean control value ± 2*SD (rough binning)” value in assay [1] (JEG-3 cells) came out at 50 µM. Further, the “cell viability relative to vehicle control (rough binning)” value in assay [1] is “increased cell viability”. Besides, the EC50 in assay [2] (setting [5]) is 159 ± 17.7 µM. Moreover, in assay [3], the “Prolif ↓, lowest concentration at which the mean response value exceeded the mean control value ± 2*SD (rough binning)” value was 400 µM; the EC50 is 306 ± 47.9 µM; the “cellular proliferation relative to vehicle control (rough binning)” value is reported as “reduced cellular proliferation”.
For `O=C([O-])C(F)(F)OC(F)(F)F.[Na+]` [2,2-Difluoro-2-(trifluoromethoxy)acetate sodium salt], in assay [3], the “Prolif ↑, lowest concentration at which the mean response value exceeded the mean control value ± 2*SD (rough binning)” value is recorded as 50 µM and the “cellular proliferation relative to vehicle control (rough binning)” value is “increased cellular proliferation”.
Turning to `O=C(O)C(F)(F)C(F)(F)C(F)(F)C(F)F` [5H-Octafluoropentanoic acid], the results for the EC50 in assay [1] (setting [4]) and in assay [3] were 354 ± 28.6 µM and 334 ± 56.5 µM, respectively.
For `O=S(=O)(O)CCC(F)(F)C(F)(F)C(F)(F)C(F)(F)C(F)(F)C(F)(F)F` [6:2 Fluorotelomer sulfonic acid], in assay [2] (JEG-3 cells, raw model output including fits that did not meet inclusion criteria, read-out: MMP EC50 ± SD (raw values)), the EC50 turned out to be 70608 ± 10 µM. In addition, in assay [3], the “Prolif ↑, lowest concentration at which the mean response value exceeded the mean control value ± 2*SD (rough binning)” value is on record as 50 µM and the “cellular proliferation relative to vehicle control (rough binning)” value is given as “increased cellular proliferation”.
Regarding `O=C(O)C(F)(F)C(F)(F)C(F)(F)C(F)(F)C(F)(F)C(F)F` [7H-Perfluoroheptanoic acid], the “Viability ↑, lowest concentration at which the mean response value exceeded the mean control value ± 2*SD (rough binning)” value in assay [1] (JEG-3 cells) came to 50 µM. For the same molecule, the EC50 in assay [1] (setting [4]) was 223 ± 60.2 µM. For the same molecule, the “cell viability relative to vehicle control (rough binning)” value in assay [1] is given as “increased cell viability”. Besides, in assay [3], the “Prolif ↓, lowest concentration at which the mean response value exceeded the mean control value ± 2*SD (rough binning)” value is recorded as 400 µM; the EC50 was 294 ± 48.2 µM; the “cellular proliferation relative to vehicle control (rough binning)” value was “reduced cellular proliferation”.
Take `OCCC(F)(F)C(F)(F)C(F)(F)C(F)(F)C(F)(F)C(F)(F)C(F)(F)C(F)(F)F` [8:2 Fluorotelomer alcohol]: the EC50 in assay [1] (Homo sapiens, JEG-3, 24 h, read-out: Viability EC50 ± SD, JEG-3 cells, 24 h exposure, four-parameter fit, estimates meeting inclusion criteria) is 35.7 ± 36.5 µM; in assay [1] (Homo sapiens, JEG-3, 24 h, read-out: viability EC50 ± SE, JEG-3 cells, 24 h) it was 36 ± 37 µM; in assay [2] (Homo sapiens, JEG-3, 24 h, read-out: MMP EC50 ± SD, JEG-3 cells, 24 h exposure, four-parameter fit, estimates meeting inclusion criteria), 95.1 ± 15.3 µM.
